For data set [1], the system named is Pseudomonas aeruginosa (ATCC 27853). In words: Determination of the minimum inhibitory concentration (P. aeruginosa). The data set is classed as cell-based. As for the experimental part: (§1) Three bacterial strains—two Gram-positive bacteria: Staphylococcus aureus (ATCC 29213) (MSSA) and methicillin resistant-S. aureus (MRSA) (ATCC 43300); and a Gram-negative Pseudomonas aeruginosa (ATCC 27853) were used in this study. Bacterial stocks (stored at −80° C. in nutrient broth with 15% glycerol) were streaked onto nutrient agar (Oxoid, Basingstoke, UK) plates for use as the working stock. From the stock an overnight bacterial culture grown in nutrient broth was diluted 1:100 into specific growth media, including tryptic soya broth for S. aureus and Luria-Bertani broth for P. aeruginosa. The final concentration of bacteria was made up to 1×10^5 cfu/mL for the inhibition assays. BCP3 was suspended in respective bacterial media to afford 5 mg/mL suspension. The stock suspension was then twice and ten times diluted to finally obtain concentrations ranging from 8×10^−4-5 mg/mL. Aliquots of 20 μL of each concentration were then added in quadruplicate to wells containing 80 μL of 1×10^5 cfu/mL bacterial solutions in a 96 well plate format for final well concentrations of 1.6×10^−4-1 mg/mL of BCP3. […] After 24 h, 100 μL from each well was transferred into a TOPS 96 well plate (Nunc) and the optical density was measured at 600 nm using a BioTek plate reader. The inhibition of bacterial growth was determined relative to the control (%). […]

The nature of data set [2]: Solubility of BCP3 in water and base. Format: physicochemical.
Data set [3] deals with Staphylococcus aureus (ATCC 29213) (MSSA). In words: Determination of the minimum inhibitory concentration (MSSA). The following applies: 24 h at 37° C., lowest concentration at which greater than 90% inhibition of bacterial growth was observed. The data set is classed as cell-based. As for the experimental part:
as §1

Data set [4] relates to methicillin resistant-S. aureus (MRSA) (ATCC 43300). In words: Determination of the minimum inhibitory concentration (MRSA). Format: cell-based. Particulars: Staphylococcus aureus, 24 h at 37° C., lowest concentration at which greater than 90% inhibition of bacterial growth was observed. As for the experimental part:
as §1

A further data set concerns L929 cells. In words: Determination of minimal BCP3 cytotoxic concentration (MTS assay). The data set is classed as cell-based. As for the experimental part: BCP3 was sterilized via incubation in 80% ethanol in a sterile glass vial for 1 h prior to being vacuum dried at 120° C. for 5 h (0.2 mbar). Subsequently BCP3 was suspended in complete minimum essential medium (MEM, containing 10% (v/v) FBS and 1% (v/v) non-essential amino acids) to afford a 5 mg/mL suspension. The stock suspension was then twice and ten times diluted to finally obtain concentrations ranging from 8×10^−4-5 mg/mL. Aliquots of 20 μL of each concentration were then added in quadruplicate to wells previously seeded with L929 cells containing 80 μL of complete MEM (18,000 cells per well, 16 h) in a 96 well plate format for final well concentrations of 1.6×10^−4-1 mg/mL. Additional controls were added to wells containing pre-seeded cells; medium alone, 5%, and 10% (v/v) dimethylsulfoxide (DMSO, Sigma) in medium. The plate was subsequently incubated for 21 h (37° C., 5% CO2). An 3-(4,5-dimethylthiazol-2-yl)-5(3-carboxymethoxyphenyl)-2-(4-sulfophenyl)-2H-tetrazolium (MTS) assay was then utilized to determine cell viability based on metabolic activity of cells. Stock solutions of 4 mM MTS (Promega) in PBS and 3 mM of phenazine methosulfate (PMS, Sigma) in PBS were used to make up a mixture of MTS and PMS reagent. A working assay reagent solution was made up by addition of 2 mL of MTS and 100 μL of PMS stock solutions per 10 mL of complete medium. Media was removed from the sample and control wells and washed with 120 μL of fresh medium; subsequently 100 μL of the assay reagent solution was added to wells then incubated for 3 h at 37° C., 5% CO2. For colorimetric analysis, plates were read in a BioTek plate reader at wavelengths 490 nm and 655 nm. The difference in readings at the two wavelengths was used to calculate cell attachment compared to controls.

Structures are written as SMILES.

`O=C(O)c1ccc(/C=C/c2cc(/C=C/c3ccc(C(=O)O)cc3)c(/C=C/c3ccc(C(=O)O)cc3)cc2/C=C/c2ccc(C(=O)O)cc2)cc1` [Formula E]: the MIC in data set [1] (Pseudomonas aeruginosa, ATCC27853, P. aeruginosa, 24 h at 37° C., lowest concentration at which greater than 90% inhibition of bacterial growth was observed) was > 1000 µg/mL; in data set [3] it was 15.6 µg/mL; in data set [4] it was 15.6 µg/mL. Moreover, the “maximum inhibition of P. aeruginosa growth” value in data set [1] (at 1 mg/mL BCP3, 24 h) turned out to be 32%. Moreover, the “solubility in the presence of bases” value in data set [2] (in the presence of bases such as NaOH) is “highly soluble”. Also, the “solubility in water” value in data set [2] (water) is “minimally soluble”. Further, in the data set on L929 cells (L929 cells, up to 1 mg/mL), the “cytotoxicity” value is recorded as “non-cytotoxic”. Also, the L929 cell viability in the data set with L929 cells (at 1 mg/mL BCP3, 21 h, compared to TOPS control) is given as 85%; with L929 cells (at all concentrations, 1.6×10^−4-1 mg/mL, 21 h) it was “above 70%”.

The values are drawn from patent publication US20200215233A1, “ANTIMICROBIAL COATING” (Boulos & Cooper Pharmaceuticals Pty Ltd, priority 2017, published 2020).
